Test: Solubility of acyclovir in the aqueous portion of the formulation, from propylene glycol/water solubility measurements
Assay type: physicochemical
Settings: estimated from propylene glycol/water solubility measurements
Excerpt: Assuming that the electrolysis is 100% efficient, the expected proton generation is […] (0.4 mA×600 sec×6.2×10^18, coulomb, ÷[…]; assuming each electron generate one proton). Thus the electrolysis of water provides enough protons to ionize the soluble portion of the dose. Since the current density in the invented system is typical for iontophoresis, the rate of proton generation in this system can be realized in other iontophoretic systems. Because the coulombic dose in this iontophoretic system is at the low end of iontophoretic doses, larger quantities of protons could be generated for use in other applications.

solubility of acyclovir in the aqueous portion of the formulation: ~0.3 % by weight
SMILES: Nc1nc2c(ncn2COCCO)c(=O)[nH]1 [Acyclovir]

Source: US20080234629A1, “WATER ELECTROLYSIS TO FACILITATE DRUG DELIVERY BY IONTOPHORESIS” (priority 2007, published 2008)
